Source: patent publication US9695155B2, “Herbicidal substituted pyrimidinyloxy benzene compounds” (E. I. DU PONT DE NEMOURS AND COMPANY, priority 2013, dated 2017)

What was measured:
waterhemp = test: Test C postemergence; assay type: in vivo, Amaranthus rudis; conditions: for Plant response rating, Waterhemp / Waterhemp plant response rating: scale 0 to 100 (0 no effect, 100 complete control)
In short: (§1)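 Whole-plant greenhouse test with surfactant-containing solvent formulation, applied preemergence to sown loam–sand pots or postemergence to 2–18 cm plants. Scored by eye 13 to 15 days on, 0–100 scale.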

morningglory = test: Test A postemergence; assay type: in vivo, Ipomoea spp.
In short: (§2)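 Scoring: eye-based comparison with untreated controls, 0 for no effect through 100 for complete control, at about day 10. Treatments: directed soil spray preemergence; foliar spray postemergence on 2–10 cm plants at the one- to two-leaf stage. Medium: loam soil with sand.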

velvetleaf = test: Test A preemergence; assay type: in vivo, Abutilon theophrasti; conditions: for Velvetleaf plant response rating: 500 g ai/ha
In short: as §2

Heteranthera limosa = test: Test B flooded paddy test; assay type: in vivo; conditions: Flood, 250 g ai/ha; 0 to 100 scale where 0 is no effect and 100 is complete control
In short: (§3)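 Flooded to 3 cm at the 2-leaf stage, pots received compound through the paddy water and were kept at that depth under greenhouse conditions. After 13–15 days, effect was rated by eye relative to controls, 0 = none and 100 = complete control.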

pigweed [1] = test: Test A postemergence; assay type: in vivo, Amaranthus retroflexus
In short: as §2

johnsongrass = test: Test C postemergence; assay type: in vivo, Sorghum halepense; conditions: for Plant response rating, Johnsongrass / Johnsongrass plant response rating: scale 0 to 100 (0 no effect, 100 complete control)
In short: as §1

pigweed [2] = test: Test A preemergence; assay type: in vivo, Amaranthus retroflexus; conditions: for Pigweed plant response rating: 500 g ai/ha
In short: as §2

oilseed rape = test: Test C postemergence; assay type: in vivo, Brassica napus; conditions: for Plant response rating, Oilseed Rape / Oilseed Rape plant response rating: scale 0 to 100 (0 no effect, 100 complete control)
In short: as §1

wheat, winter = test: Test C postemergence; assay type: in vivo, Triticum aestivum; conditions: for Plant response rating, Wheat / Wheat plant response rating: scale 0 to 100 (0 no effect, 100 complete control)
In short: as §1

large (Lg) crabgrass = test: Test C postemergence; assay type: in vivo, Digitaria sanguinalis; conditions: for Plant response rating, Crabgrass, Large / Crabgrass, Large plant response rating: scale 0 to 100 (0 no effect, 100 complete control)
In short: as §1

chickweed = test: Test C postemergence; assay type: in vivo, Stellaria media; conditions: for Plant response rating, Chickweed / Chickweed plant response rating: scale 0 to 100 (0 no effect, 100 complete control)
In short: as §1

barnyardgrass [3] = test: Test B flooded paddy test; assay type: in vivo, Echinochloa crus-galli; conditions: Flood, 250 g ai/ha; 0 to 100 scale where 0 is no effect and 100 is complete control
In short: as §3

sedge, umbrella = test: Test B flooded paddy test; assay type: in vivo, Cyperus difformis; conditions: Flood, 250 g ai/ha; 0 to 100 scale where 0 is no effect and 100 is complete control
In short: as §3

corn = test: Test C postemergence; assay type: in vivo, Zea mays; conditions: for Plant response rating, Corn / Corn plant response rating: scale 0 to 100 (0 no effect, 100 complete control)
In short: as §1

barnyardgrass [4] = test: Test C postemergence; assay type: in vivo, Echinochloa crus-galli; conditions: for Plant response rating, Barnyardgrass / Barnyardgrass plant response rating: scale 0 to 100 (0 no effect, 100 complete control)
In short: as §1

[5] = Postemergence, 31 g ai/ha, 13 to 15 days
[6] = 125 g ai/ha, 0 to 100 scale where 0 is no effect and 100 is complete control
[7] = 500 g ai/ha, 0 to 100 scale, 0 no effect, 100 complete control
[8] = 0 to 100 scale, 0 no effect, 100 complete control, approx. 10 days
[9] = 16 g ai/ha, postemergence, 0 is no effect, 100 is complete control
[10] = 31 g ai/ha, postemergence, visual rating, 13 to 15 days
[11] = 125 g ai/ha, postemergence, visual rating
[12] = 500 g ai/ha, 0 to 100 scale where 0 is no effect and 100 is complete control
[13] = 0 to 100 scale where 0 is no effect and 100 is complete control
[14] = 8 g ai/ha, postemergence, 0 is no effect, 100 is complete control

Fc1cnc(Oc2ccccc2-n2cc(C(F)(F)F)cn2)nc1 [Compound 47]
Plant response rating (0 to 100), Waterhemp (waterhemp; 125 g ai/ha, postemergence): 100
Plant response rating (0 to 100), Waterhemp (waterhemp; 250 g ai/ha, postemergence): 100
Plant response rating, Waterhemp (waterhemp; [5]): 100
Plant response rating, Waterhemp (waterhemp; Postemergence, 62 g ai/ha): 100
Plant response rating, Morningglory (morningglory; [6]): 80
Plant response rating, Morningglory (morningglory; [7]): 100
Plant response rating, Velvetleaf (velvetleaf; [6]): 100
Velvetleaf plant response rating (velvetleaf; [8]): 100
Plant response rating, Ducksalad (Heteranthera limosa): 95
Plant response rating, Pigweed (pigweed [1]; [6]): 100
Plant response rating, Pigweed (pigweed [1]; [7]): 100
Plant response rating (0 to 100), Johnsongrass (johnsongrass; 125 g ai/ha, postemergence): 5
Plant response rating (0 to 100), Johnsongrass (johnsongrass; 250 g ai/ha, postemergence): 5
Plant response rating, Johnsongrass (johnsongrass; [5]): 0
Plant response rating, Johnsongrass (johnsongrass; Postemergence, 62 g ai/ha): 5
Plant response rating, Pigweed (pigweed [2]; [6]): 100
Pigweed plant response rating (pigweed [2]; [8]): 100
Plant response rating (0 to 100), Oilseed Rape (oilseed rape; 125 g ai/ha, postemergence): 55
Plant response rating (0 to 100), Oilseed Rape (oilseed rape; 250 g ai/ha, postemergence): 55
Plant response rating, Oilseed Rape (oilseed rape; [5]): 15
Plant response rating, Oilseed Rape (oilseed rape; Postemergence, 62 g ai/ha): 50
Plant response rating (0 to 100), Wheat (wheat, winter; 125 g ai/ha, postemergence): 0
Plant response rating (0 to 100), Wheat (wheat, winter; 250 g ai/ha, postemergence): 0
Plant response rating, Wheat (wheat, winter; [5]): 0
Plant response rating, Wheat (wheat, winter; Postemergence, 62 g ai/ha): 0
Plant response rating (0 to 100), Crabgrass, Large (large (Lg) crabgrass; 125 g ai/ha, postemergence): 5
Plant response rating (0 to 100), Crabgrass, Large (large (Lg) crabgrass; 250 g ai/ha, postemergence): 10
Plant response rating, Crabgrass, Large (large (Lg) crabgrass; [5]): 5
Plant response rating, Crabgrass, Large (large (Lg) crabgrass; Postemergence, 62 g ai/ha): 5
Plant response rating (0 to 100), Chickweed (chickweed; 125 g ai/ha, postemergence): 50
Plant response rating (0 to 100), Chickweed (chickweed; 250 g ai/ha, postemergence): 50
Plant response rating, Chickweed (chickweed; [5]): 5
Plant response rating, Chickweed (chickweed; Postemergence, 62 g ai/ha): 5
Plant response rating, Barnyardgrass (barnyardgrass [3]): 10
Plant response rating, Sedge, Umbrella (sedge, umbrella): 70
Plant response rating (0 to 100), Corn (corn; 125 g ai/ha, postemergence): 5
Plant response rating (0 to 100), Corn (corn; 250 g ai/ha, postemergence): 5
Plant response rating, Corn (corn; [5]): 0
Plant response rating, Corn (corn; Postemergence, 62 g ai/ha): 0
Plant response rating (0 to 100), Barnyardgrass (barnyardgrass [4]; 125 g ai/ha, postemergence): 0
Plant response rating (0 to 100), Barnyardgrass (barnyardgrass [4]; 250 g ai/ha, postemergence): 5
Plant response rating, Barnyardgrass (barnyardgrass [4]; [5]): 0
Plant response rating, Barnyardgrass (barnyardgrass [4]; Postemergence, 62 g ai/ha): 0

Fc1cccc(Oc2ncc(Cl)cn2)c1-n1cc(Cl)cn1 [Compound 177]
Plant response rating (0 to 100), Waterhemp (waterhemp; [9]): 70
Waterhemp plant response rating (waterhemp; [10]): 75
Plant response rating, Waterhemp (waterhemp; [11]): 100
Plant response rating, Waterhemp (waterhemp; Postemergence, 62 g ai/ha): 95
Morningglory plant response rating (morningglory; [6]): 90
Plant response rating, Morningglory (morningglory; [12]): 100
Velvetleaf plant response rating (0 to 100 scale) (velvetleaf; 125 g ai/ha): 80
Velvetleaf plant response rating (velvetleaf; [13]): 100
Plant response rating, Ducksalad (Heteranthera limosa): 90
Pigweed plant response rating (pigweed [1]; [6]): 100
Plant response rating, Pigweed (pigweed [1]; [12]): 100
Plant response rating (0 to 100), Johnsongrass (johnsongrass; [9]): 5
Johnsongrass plant response rating (johnsongrass; [10]): 5
Plant response rating, Johnsongrass (johnsongrass; [11]): 10
Plant response rating, Johnsongrass (johnsongrass; Postemergence, 62 g ai/ha): 5
Pigweed plant response rating (0 to 100 scale) (pigweed [2]; 125 g ai/ha): 100
Pigweed plant response rating (pigweed [2]; [13]): 100
Plant response rating (0 to 100), Oilseed Rape (oilseed rape; [9]): 60
Oilseed Rape plant response rating (oilseed rape; [10]): 80
Plant response rating, Oilseed Rape (oilseed rape; [11]): 90
Plant response rating, Oilseed Rape (oilseed rape; Postemergence, 62 g ai/ha): 90
Plant response rating (0 to 100), Wheat (wheat, winter; [9]): 0
Wheat plant response rating (wheat, winter; [10]): 0
Plant response rating, Wheat (wheat, winter; [11]): 5
Plant response rating, Wheat (wheat, winter; Postemergence, 62 g ai/ha): 0
Plant response rating (0 to 100), Crabgrass, Large (large (Lg) crabgrass; [9]): 5
Crabgrass, Large plant response rating (large (Lg) crabgrass; [10]): 5
Plant response rating, Crabgrass, Large (large (Lg) crabgrass; [11]): 10
Plant response rating, Crabgrass, Large (large (Lg) crabgrass; Postemergence, 62 g ai/ha): 10
Plant response rating (0 to 100), Chickweed (chickweed; [9]): 50
Chickweed plant response rating (chickweed; [10]): 50
Plant response rating, Chickweed (chickweed; [11]): 85
Plant response rating, Chickweed (chickweed; Postemergence, 62 g ai/ha): 55
Plant response rating, Barnyardgrass (barnyardgrass [3]): 30
Plant response rating, Sedge, Umbrella (sedge, umbrella): 100
Plant response rating (0 to 100), Corn (corn; [9]): 5
Corn plant response rating (corn; [10]): 5
Plant response rating, Corn (corn; [11]): 10
Plant response rating, Corn (corn; Postemergence, 62 g ai/ha): 10
Plant response rating (0 to 100), Barnyardgrass (barnyardgrass [4]; [9]): 5
Barnyardgrass plant response rating (barnyardgrass [4]; [10]): 5
Plant response rating, Barnyardgrass (barnyardgrass [4]; [11]): 10
Plant response rating, Barnyardgrass (barnyardgrass [4]; Postemergence, 62 g ai/ha): 10

O=Cc1cccc(Oc2ncc(I)cn2)c1-n1cc(Br)cn1 [Compound 172]
Plant response rating (0 to 100), Waterhemp (waterhemp; [14]): 0
Plant response rating (0 to 100), Waterhemp (waterhemp; [9]): 5
Waterhemp plant response rating (waterhemp; [10]): 5
Plant response rating, Waterhemp (waterhemp; Postemergence, 62 g ai/ha): 5
Morningglory plant response rating (morningglory; [6]): 80
Plant response rating, Morningglory (morningglory; [12]): 90
Velvetleaf plant response rating (0 to 100 scale) (velvetleaf; 125 g ai/ha): 0
Velvetleaf plant response rating (velvetleaf; [13]): 0
Plant response rating, Ducksalad (Heteranthera limosa): 0
Pigweed plant response rating (pigweed [1]; [6]): 100
Plant response rating, Pigweed (pigweed [1]; [12]): 100
Plant response rating (0 to 100), Johnsongrass (johnsongrass; [14]): 0
Plant response rating (0 to 100), Johnsongrass (johnsongrass; [9]): 0
Johnsongrass plant response rating (johnsongrass; [10]): 10
Plant response rating, Johnsongrass (johnsongrass; Postemergence, 62 g ai/ha): 10
Pigweed plant response rating (0 to 100 scale) (pigweed [2]; 125 g ai/ha): 0
Pigweed plant response rating (pigweed [2]; [13]): 50
Plant response rating (0 to 100), Oilseed Rape (oilseed rape; [14]): 0
Plant response rating (0 to 100), Oilseed Rape (oilseed rape; [9]): 0
Oilseed Rape plant response rating (oilseed rape; [10]): 0
Plant response rating, Oilseed Rape (oilseed rape; Postemergence, 62 g ai/ha): 0
Plant response rating (0 to 100), Wheat (wheat, winter; [14]): 0
Plant response rating (0 to 100), Wheat (wheat, winter; [9]): 0
Wheat plant response rating (wheat, winter; [10]): 0
Plant response rating, Wheat (wheat, winter; Postemergence, 62 g ai/ha): 0
Plant response rating (0 to 100), Crabgrass, Large (large (Lg) crabgrass; [14]): 0
Plant response rating (0 to 100), Crabgrass, Large (large (Lg) crabgrass; [9]): 0
Crabgrass, Large plant response rating (large (Lg) crabgrass; [10]): 0
Plant response rating, Crabgrass, Large (large (Lg) crabgrass; Postemergence, 62 g ai/ha): 0
Plant response rating (0 to 100), Chickweed (chickweed; [14]): 0
Plant response rating (0 to 100), Chickweed (chickweed; [9]): 0
Chickweed plant response rating (chickweed; [10]): 50
Plant response rating, Chickweed (chickweed; Postemergence, 62 g ai/ha): 70
Plant response rating, Barnyardgrass (barnyardgrass [3]): 0
Plant response rating, Sedge, Umbrella (sedge, umbrella): 0
Plant response rating (0 to 100), Corn (corn; [14]): 0
Plant response rating (0 to 100), Corn (corn; [9]): 0
Corn plant response rating (corn; [10]): 0
Plant response rating, Corn (corn; Postemergence, 62 g ai/ha): 0
Plant response rating (0 to 100), Barnyardgrass (barnyardgrass [4]; [14]): 0
Plant response rating (0 to 100), Barnyardgrass (barnyardgrass [4]; [9]): 5
Barnyardgrass plant response rating (barnyardgrass [4]; [10]): 5
Plant response rating, Barnyardgrass (barnyardgrass [4]; Postemergence, 62 g ai/ha): 5
